Reference: ChEMBL document CHEMBL1149687, “Development of oligoarginine-drug conjugates linked to new peptidic self-cleavable spacers toward effective intestinal absorption” (Bioorg Med Chem Lett, 2007)

System: Caco-2
Assay: Apparent permeability across Caco-2 cells
Type: functional, cell-based
Details: Homo sapiens

Row | SMILES | Papp [×10⁻⁶ cm/s]
1 | CC(N)[C@@H](NC(=O)CCC(=O)OCCNC(=S)Nc1ccc(-c2c3ccc(=O)cc-3oc3cc(O)ccc23)c(C(=O)O)c1)C(=O)NCCCC(=O)N[C@H](CCCNC(=N)N)C(=O)N[C@H](CCCNC(=N)N)C(=O)N[C@H](CCCNC(=N)N)C(=O)N[C@H](CCCNC(=N)N)C(=O)N[C@H](CCCNC(=N)N)C(=O)N[C@H](CCCNC(=N)N)C(=O)N[C@H](CCCNC(=N)N)C(N)=O (some centres undefined) | 0.48
2 | C[C@@H](NC(=O)CCC(=O)OCCNC(=S)Nc1ccc(-c2c3ccc(=O)cc-3oc3cc(O)ccc23)c(C(=O)O)c1)C(=O)NCCCC(=O)N[C@H](CCCNC(=N)N)C(=O)N[C@H](CCCNC(=N)N)C(=O)N[C@H](CCCNC(=N)N)C(=O)N[C@H](CCCNC(=N)N)C(=O)N[C@H](CCCNC(=N)N)C(=O)N[C@H](CCCNC(=N)N)C(=O)N[C@H](CCCNC(=N)N)C(N)=O | 0.41
3 | O=C(O)c1cc(NC(=S)NCCO)ccc1-c1c2ccc(=O)cc-2oc2cc(O)ccc12 | 0.26
4 | N=C(N)NCCC[C@@H](NC(=O)[C@@H](CCCNC(=N)N)NC(=O)[C@@H](CCCNC(=N)N)NC(=O)[C@@H](CCCNC(=N)N)NC(=O)[C@@H](CCCNC(=N)N)NC(=O)[C@@H](CCCNC(=N)N)NC(=O)[C@@H](CCCNC(=N)N)NC(=O)CCCNC(=O)[C@@H](CN)NC(=O)CCC(=O)OCCNC(=S)Nc1ccc(-c2c3ccc(=O)cc-3oc3cc(O)ccc23)c(C(=O)O)c1)C(N)=O | 0.75
